Laboratory results reported in publication PMC10380446, “The Electronic Effects of 3-Methoxycarbonylcoumarin Substituents on Spectral, Antioxidant, and Protein Binding Properties” (International Journal of Molecular Sciences, 2023).

Target: T1, bovine serum albumin (BSA) (Bos taurus, UniProt P02769)
T1 construct: gene ALB; mature secreted protein
Experiment: tryptophan fluorescence quenching, excitation […] nm
Type: binding
Settings: double-log, natural logarithm of K, PBS, 300 K

T1 sequence (P02769 25-607): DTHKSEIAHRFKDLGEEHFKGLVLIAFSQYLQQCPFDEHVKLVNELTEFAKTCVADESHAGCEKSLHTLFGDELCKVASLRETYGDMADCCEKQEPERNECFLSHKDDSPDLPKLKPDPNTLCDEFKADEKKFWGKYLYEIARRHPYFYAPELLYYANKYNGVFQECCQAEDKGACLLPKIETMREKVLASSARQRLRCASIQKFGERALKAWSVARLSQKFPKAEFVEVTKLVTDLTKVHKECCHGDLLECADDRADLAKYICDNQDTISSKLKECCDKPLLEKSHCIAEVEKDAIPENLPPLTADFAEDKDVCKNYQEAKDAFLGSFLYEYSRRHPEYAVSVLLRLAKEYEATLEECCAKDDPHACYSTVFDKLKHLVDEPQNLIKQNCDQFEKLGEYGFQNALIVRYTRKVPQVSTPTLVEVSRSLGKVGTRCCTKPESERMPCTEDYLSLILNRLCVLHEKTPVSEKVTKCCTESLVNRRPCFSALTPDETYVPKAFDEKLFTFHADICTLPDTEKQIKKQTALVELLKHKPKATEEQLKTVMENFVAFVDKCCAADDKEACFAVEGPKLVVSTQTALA

Structure (SMILES) | lnK | lnK (covalent (suspected by the authors from new 480 nm peak), unreliable)
COC(=O)c1cc2cc(Br)ccc2oc1=O [6-Br] | 9.78 ln (M^-1 not printed) | 
COC(=O)c1cc2cc([N+](=O)[O-])ccc2oc1=O [6-NO2] | 9.03 ln (M^-1 not printed) | 
COC(=O)c1cc2cc(OC)ccc2oc1=O [6-OMe] |  | 12.62 ln (M^-1 not printed)
